Experiments:
[1] = system: Influenza A Puerto Rico/8/1934 (H1N1) virus; assay type: in vivo, BALB/C mice; settings: for weight-loss phenomenon: 1.5 μmol/kg once daily for five consecutive days, linear PEG linkers compared to the DBCO-containing linker; for survival rate at the end of the experiment: mouse, in vivo
[2] = system: Influenza A Puerto Rico8/1934 (H1N1) virus; assay type: in vivo, BALB/C mice
influenza infection = assay: Treatment of FRβ knockout mice following influenza infection; assay type: in vivo, folate receptor beta (FRβ) knockout mice; settings: FRβ knockout mice treated following influenza infection
[3] = system: Influenza A H1N1/PR8/1932 virus; design: species or system BALB/C mice; settings: mouse, in vivo

CC(=O)N[C@H]1[C@H]([C@H](OC(=O)NCCOCCOCCOCCOCCOCCOCCOCCOCCOCCOCCOCCNC(=O)CC[C@H](NC(=O)c2ccc(NCc3cnc4nc(N)[nH]c(=O)c4n3)cc2)C(=O)O)[C@H](O)CO)OC(C(=O)O)=C[C@@H]1NC(=N)N [zan-PEG11-folate]
weight-loss phenomenon [1]: more pronounced
survival rate at the end of the experiment [1]: 100%

CC(=O)N[C@H]1[C@H]([C@H](OC(=O)NCCOCCOCCOCCOCCOCCOCCNC(=O)CC[C@H](NC(=O)c2ccc(NCc3cnc4nc(N)[nH]c(=O)c4n3)cc2)C(=O)O)[C@H](O)CO)OC(C(=O)O)=C[C@@H]1NC(=N)N [Compound 10]
dose response of survival rate ([2]; […], 1.5, 0.5 and 0.17 μmol/kg once daily for five consecutive days): increased with increasing dose
survival rate ([2]; mouse, in vivo): 100%
weight-loss phenomenon [1]: more pronounced
survival rate at the end of the experiment [1]: 90%
survival at the end of the experiment (influenza infection): None of the mice survived
body weight over time [3]: did not lose any body weight
survival at the end of two weeks long experiment [3]: both the mice survived

Reference: patent publication US20240285776A1, “SMALL MOLECULE-BASED BI-SPECIFIC IMMUNE CELL TETHERS AND THEIR USE IN THE TREATMENT OF ENVELOPED VIRUS INFECTION” (PURDUE RESEARCH FOUNDATION, priority 2021, published 2024)
